For data set [1], the target named is T1, human progesterone receptor B (Homo sapiens, UniProt P06401).
T1 construct: expressed in transfected cells; host or cells: SK-N-MC human neuroblastoma cells, stably transfected with pRChPR-B-neo and pMMTV-LUC
T1 sequence (P06401 1-933): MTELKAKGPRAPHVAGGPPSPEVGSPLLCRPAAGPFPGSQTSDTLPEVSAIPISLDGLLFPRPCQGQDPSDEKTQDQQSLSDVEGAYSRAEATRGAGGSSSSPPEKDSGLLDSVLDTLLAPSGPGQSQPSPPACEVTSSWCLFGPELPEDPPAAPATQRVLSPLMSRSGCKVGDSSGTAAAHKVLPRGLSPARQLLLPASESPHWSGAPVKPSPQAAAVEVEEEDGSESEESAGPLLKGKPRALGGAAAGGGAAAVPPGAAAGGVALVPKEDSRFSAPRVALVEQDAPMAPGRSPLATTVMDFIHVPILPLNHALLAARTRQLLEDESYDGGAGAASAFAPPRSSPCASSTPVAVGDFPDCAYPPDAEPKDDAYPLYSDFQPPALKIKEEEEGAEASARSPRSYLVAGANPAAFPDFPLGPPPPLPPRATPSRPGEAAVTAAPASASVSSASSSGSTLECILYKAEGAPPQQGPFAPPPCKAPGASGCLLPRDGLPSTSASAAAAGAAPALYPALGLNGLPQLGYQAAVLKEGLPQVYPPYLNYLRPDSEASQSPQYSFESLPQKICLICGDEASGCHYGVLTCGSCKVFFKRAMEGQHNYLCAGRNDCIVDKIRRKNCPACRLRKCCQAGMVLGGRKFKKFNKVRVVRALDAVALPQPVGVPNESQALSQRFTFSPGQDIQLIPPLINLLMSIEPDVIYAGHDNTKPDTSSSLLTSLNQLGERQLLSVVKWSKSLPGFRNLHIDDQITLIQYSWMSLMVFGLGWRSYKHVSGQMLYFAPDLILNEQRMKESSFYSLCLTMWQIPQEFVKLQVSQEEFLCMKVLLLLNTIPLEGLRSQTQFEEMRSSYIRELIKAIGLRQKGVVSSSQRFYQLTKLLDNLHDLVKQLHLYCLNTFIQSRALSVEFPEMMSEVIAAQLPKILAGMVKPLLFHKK
Description: Progesterone receptor-antagonistic action in stably transfected SK-N-MC cells, PR-B, MMTV-LUC reporter. The format is cell-based. As to conditions: read-out: IC50 PR-B. The procedure, abridged: (§1)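 SK-N-MC neuroblastoma cells stably expressing human PR-A or PR-B plus MMTV-LUC reporter, treated 24 h with compound (0.01 nmol/l upward). Antagonism measured against 0.1 nmol/l promegestone; luciferase in lysates as RLU, given as % efficacy and IC50 (agonism as EC50).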

Data set [2] in a line: Metabolic stability in human liver microsomes. As to conditions: for Predicted clearance Human: predicted in vivo clearance from liver microsomes, well-stirred model, 1 μM; for Predicted Fmax (maximum oral bioavailability) Human: calculated from liver microsome data. The class given is in vitro ADME. As for the experimental part: Determination of Metabolic Stability in Human and Rat Liver Microsomes
Isolated Human Liver Microsomes (HLM) were Used to Assess the Metabolic Stability of compounds of general formula I.
The incubations were conducted with 2.4 ml of HLM solution (protein content 0.5 mg/ml), 30 μl of the test compound (final concentration 1 μM) and 0.6 ml of the cofactor mixture (═NADPH-generating system composed of 3 IU glucose-6-phosphate dehydrogenase, 14.6 mg glucose-6-phosphate, 1.2 mg NADP) at 37° C. in 100 mM phosphate buffer at pH 7.4. Samples were taken at 6 time points (2-60 min) and precipitated with an equal volume of methanol, and the recovery of the test substances used in the supernatant was determined by LC-MS/MS analysis. The half-life of substance degradation determined therefrom was used to calculate what is called the intrinsic clearance of the substance in the liver microsome preparation.

A short description of data set [3]: Solubility in aqueous medium at pH 7.4. The format is physicochemical. Particulars: for solubility: aqueous medium, pH 7.4, aqueous buffer; for solubility (in words): aqueous medium under physiological conditions.
For data set [4], the target named is T2, human progesterone receptor A (Homo sapiens, UniProt P06401).
T2 construct: expressed in transfected cells; host or cells: SK-N-MC human neuroblastoma cells, stably transfected with pRChPR-A-neo and pMMTV-LUC
T2 sequence (P06401 1-769 isoform P06401-2): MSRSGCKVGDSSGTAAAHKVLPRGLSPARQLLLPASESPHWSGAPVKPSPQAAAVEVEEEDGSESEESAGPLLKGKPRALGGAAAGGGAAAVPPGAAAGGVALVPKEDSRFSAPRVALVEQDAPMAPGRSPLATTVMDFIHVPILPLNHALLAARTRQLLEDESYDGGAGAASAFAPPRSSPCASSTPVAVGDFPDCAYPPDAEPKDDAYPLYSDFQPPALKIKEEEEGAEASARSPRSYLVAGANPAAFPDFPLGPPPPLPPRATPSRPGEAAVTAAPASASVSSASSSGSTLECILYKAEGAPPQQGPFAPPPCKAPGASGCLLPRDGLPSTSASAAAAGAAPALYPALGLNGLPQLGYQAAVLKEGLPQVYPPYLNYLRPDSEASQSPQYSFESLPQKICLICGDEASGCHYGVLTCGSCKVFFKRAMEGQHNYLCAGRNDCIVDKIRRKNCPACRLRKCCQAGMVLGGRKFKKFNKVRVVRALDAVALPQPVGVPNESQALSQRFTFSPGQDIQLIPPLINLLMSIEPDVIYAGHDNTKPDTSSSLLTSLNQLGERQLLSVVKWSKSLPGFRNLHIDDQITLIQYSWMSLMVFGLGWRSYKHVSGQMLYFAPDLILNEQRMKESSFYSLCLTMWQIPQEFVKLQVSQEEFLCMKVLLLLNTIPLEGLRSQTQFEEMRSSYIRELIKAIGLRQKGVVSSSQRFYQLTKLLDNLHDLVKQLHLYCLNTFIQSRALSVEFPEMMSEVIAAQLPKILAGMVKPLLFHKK
Kind of data set: Progesterone receptor-antagonistic action in stably transfected SK-N-MC cells, PR-A, MMTV-LUC reporter. The class given is cell-based. Particulars: read-out: IC50 PR-A. The procedure, abridged: as §1

≈ marks a conversion by molar mass, not a printed value.

The IC50 is the concentration that gives 50% inhibition. A word on the solubility: it is the concentration that dissolves in the medium under given conditions. Low readings indicate little dissolved substance, high ones much dissolved substance. In the case of `C[C@]12C[C@H](c3ccc(C#C/C=C\C#N)cc3)C3=C4CCC(=O)C=C4CCC3C1CC[C@@]2(O)C(F)(F)C(F)(F)F` (stereo partly drawn) [Example 5, (Z)-5-[4-((8S,11R,13S,14S,17S)-17-hydroxy-13-methyl-3-oxo-17-pentafluoroethyl-2,3,6,7,8,11,12,13,14,15,16,17-dodecahydro-1H-cyclopenta[a]phenanthren-1′-yl)phenyl]pent-2-en-4-ynenitrile], the IC50 in data set [1] was determined as 0.76 nM; in data set [4] it was 0.72 nM. The “Predicted clearance Human” value in data set [2] is 2.83 mL/min/kg. For the same compound, the solubility in data set [3] amounted to 8 µg/mL (≈ 14.8 µM).
Take `C[C@]12C[C@H](c3ccc(C#CCOCCO)cc3)C3=C4CCC(=O)C=C4CC[C@H]3[C@@H]1CC[C@@]2(O)C(F)(F)C(F)(F)F` [Example 11, (8S,11R,13S,14S,17S)-17-hydroxy-11-{4-[3-(2-hydroxyethoxy)prop-1-yn-1-yl]-phenyl}-13-methyl-17-pentafluoroethyl-1,2,6,7,8,11,12,13,14,15,16,17-dodecahydrocyclopenta[a]phenanthren-3-one]: in data set [1], the IC50 was determined as 1 nM. For the same compound, in data set [2], the “Predicted Fmax (maximum oral bioavailability) Human” value (“Predicted Fmax” below) is reported as 63% and the “Predicted clearance Human” value was 8.17 mL/min/kg. Besides, in data set [3], the “solubility (in words)” value is “improved solubility” and the concentration in solution (solubility) was 30 µg/mL (≈ 53.1 µM). Further, the IC50 in data set [4] turned out to be 0.32 nM.
As for `C[C@]12C[C@H](c3ccc(C#C/C=C/c4cccc(C(=O)O)c4)cc3)C3=C4CCC(=O)C=C4CCC3C1CC[C@@]2(O)C(F)(F)C(F)(F)F` (stereo partly drawn) [Example 13A, 3-{(E)-4-[4-((8S,11R,13S,14S,17S)-17-hydroxy-13-methyl-3-oxo-17-pentafluoroethyl-2,3,6,7,8,11,12,13,14,15,16,17-dodecahydro-1H-cyclopenta[a]phenanthren-1′-yl)phenyl]but-1-en-3-ynyl}benzoic acid], in data set [1], the IC50 amounted to 0.2 nM. For the same compound, the “Predicted clearance Human” value in data set [2] was 5.17 mL/min/kg. For the same compound, in data set [3], the “solubility (in words)” value is listed as “improved solubility” and the concentration in solution (solubility) was 148 µg/mL (≈ 232 µM). The IC50 in data set [4] was 0.1 nM.
As for `C[C@]12C[C@H](c3ccc(C#C/C=N/OCc4ccccc4)cc3)C3=C4CCC(=O)C=C4CCC3C1CC[C@@]2(O)C(F)(F)C(F)(F)F` (stereo partly drawn) [Example 24A, (E)-[4-((8S,11R,13S,14S,17S)-17-hydroxy-13-methyl-3-oxo-17-pentafluoroethyl-2,3,6,7,8,11,12,13,14,15,16,17-dodecahydro-1H-cyclopenta[a]phenanthren-1′-yl)phenyl]propynal O-benzyl oxime], in data set [1], the 50% inhibitory concentration (IC50) turned out to be 0.1 nM. Also, in data set [2], the “Predicted Fmax” value was 34% and the “Predicted clearance Human” value was 14.7 mL/min/kg. This compound also had a solubility in data set [3] of 5 µg/mL (≈ 8.02 µM). Moreover, the IC50 in data set [4] turned out to be 0.1 nM.
In the case of `CCO/N=C/C#Cc1ccc([C@H]2C[C@@]3(C)[C@@H](CC[C@@]3(O)C(F)(F)C(F)(F)F)[C@@H]3CCC4=CC(=O)CCC4=C32)cc1` [Example 25A, (E)-[4-((8S,11R,13S,14S,17S)-17-hydroxy-13-methyl-3-oxo-17-pentafluoroethyl-2,3,6,7,8,11,12,13,14,15,16,17-dodecahydro-1H-cyclopenta[a]phenanthren-1′-yl)phenyl]propynal O-ethyl oxime], in data set [1], the IC50 was 0.08 nM. In data set [2], the “Predicted Fmax” value was 47% and the “Predicted clearance Human” value is 11.7 mL/min/kg. The solubility in data set [3] was 5 µg/mL (≈ 8.9 µM). The IC50 in data set [4] is 0.01 nM.
On to `CCNC(=O)NCC#Cc1ccc([C@H]2C[C@@]3(C)C(CC[C@@]3(O)C(F)(F)C(F)(F)F)C3CCC4=CC(=O)CCC4=C32)cc1` (stereo partly drawn) [Example 31, 1-ethyl-3-{3-[4-((8S,11R,13S,14S,17S)-17-hydroxy-13-methyl-3-oxo-17-pentafluoroethyl-2,3,6,7,8,11,12,13,14,15,16,17-dodecahydro-1H-cyclopenta[a]phenanthren-1′-yl)phenyl]prop-2-ynyl}urea], for which the IC50 in data set [1] was 0.1 nM. For the same compound, in data set [2], the “Predicted Fmax” value is recorded as 15% and the “Predicted clearance Human” value was 18.8 mL/min/kg. For the same compound, the solubility in data set [3] came out at 10 µg/mL (≈ 16.9 µM). Besides, in data set [4], the IC50 came to 0.08 nM.

The values are drawn from US9102701B2, “17-hydroxy-17-pentafluoroethyl-estra-4,9(10)-diene-11-ethynylphenyl derivatives, methods for the production thereof and use thereof for treating diseases” (Bayer Intellectual Property GmbH, priority 2009, dated 2015).
